Source: publication PMC12191008, “Heterostilbene Carbamates with Selective and Remarkable Butyrylcholinesterase Inhibition: Computational Study and Physico-Chemical Properties” (Biomolecules, 2025)
Several values for one entry are separate records, joined by “and”; a condition that tells them apart may be missing. Identical values can stand only once. Like-named read-outs stand apart in the source and are kept apart here.

Legend:
[1] = molecular target: BChE (EC 3.1.1.8, equine serum) (Equus caballus, UniProt P81908); assay: In vitro ChE activity assay (modified Ellman), BChE; type: biochemical; conditions: for inhibition at 500 µM / inhibition at 50 µM: read-out: BChE % Inhibition
Chain of BChE (EC 3.1.1.8, equine serum) (P81908 whole entry): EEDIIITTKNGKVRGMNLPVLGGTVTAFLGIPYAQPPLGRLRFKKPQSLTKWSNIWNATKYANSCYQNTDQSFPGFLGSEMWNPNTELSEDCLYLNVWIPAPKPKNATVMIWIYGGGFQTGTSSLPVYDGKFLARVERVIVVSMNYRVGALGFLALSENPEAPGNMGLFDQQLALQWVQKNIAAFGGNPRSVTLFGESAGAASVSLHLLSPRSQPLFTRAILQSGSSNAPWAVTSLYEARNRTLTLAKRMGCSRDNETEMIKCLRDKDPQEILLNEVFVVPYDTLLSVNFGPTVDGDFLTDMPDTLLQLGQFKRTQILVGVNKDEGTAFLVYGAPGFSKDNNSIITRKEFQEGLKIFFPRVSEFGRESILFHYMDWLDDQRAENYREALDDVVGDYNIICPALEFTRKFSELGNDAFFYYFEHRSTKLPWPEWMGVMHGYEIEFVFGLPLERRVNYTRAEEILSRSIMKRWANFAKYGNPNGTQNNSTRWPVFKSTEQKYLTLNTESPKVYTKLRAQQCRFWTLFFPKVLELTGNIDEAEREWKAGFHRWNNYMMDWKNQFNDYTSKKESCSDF

[2] = test system: LPS-stimulated TNFα production in PBMCs; assay: LPS-stimulated TNFα production in PBMCs (ELISA); type: cell-based; conditions: Homo sapiens, PBMC, read-out: IC50, inhibition of LPS-stimulated TNFα production
Protocol: The effect of compounds on lipopolysaccharide (LPS)-stimulated tumor necrosis factor alpha (TNFα) production was evaluated as described previously. In short, peripheral blood mononuclear cells (PBMCs) were isolated from buffy coats obtained from healthy adult volunteers and resuspended in RPMI1640 medium (Capricorn Scientific, Ebsdorfergrund, Germany) supplemented with 10% heat-inactivated FBS (Biowest, Bradenton, FL, USA), 1% GlutaMAX (Gibco, Waltham, MA, USA), and 1% antibiotic–antimycotic (Gibco). Then, 2 × 10^5 PBMCs were seeded per well of a 96-well plate. […]
TNFα concentration in supernatants was measured by ELISA using antibodies and recombinant human TNFα protein (standard) from R&D Systems. […] Finally, after the plates were incubated with streptavidin-HRP (Invitrogen, Waltham, MA, USA), chemiluminescence ELISA Substrate (Roche, Basel, Switzerland) was added to the wells, and luminescence was measured using an EnVision 2105 multilabel reader (Revvity, Waltham, MA, USA). Measured luminescence was used to calculate concentrations of TNFα in the supernatants by interpolation from the standard curve. Percentages of inhibition were calculated from obtained cytokine concentrations, and IC50 values were determined using GraphPad Prism v9 software with a nonlinear regression curve fit (four parameters with variable slope).

[3] = at maximal concentration tested
[4] = at maximal concentration tested, 50 μM

| SMILES | IC50 ([1]; read-out: BChE IC50) [nM] | IC50 ([1]; BChE IC50) | other results |
| --- | --- | --- | --- |
| CNC(=O)Oc1ccccc1/C=C/c1cccs1 [Compound 1, (E)-2-(2-(thiophen-2-yl)vinyl)phenyl methylcarbamate] | 500 |  | inhibition at 10 µM [1, 3]: 84.4 ± 1.18% |
| CNC(=O)Oc1ccc(F)cc1/C=C/c1cccs1 [Compound 2, (E)-4-fluoro-2-(2-(thiophen-2-yl)vinyl)phenyl methylcarbamate] | 3740 |  | inhibition at 100 µM [1, 3]: 84.7 ± 3.2% |
| CNC(=O)Oc1ccc(OC)cc1/C=C/c1cccs1 [Compound 3, (E)-4-methoxy-2-(2-(thiophen-2-yl)vinyl)phenyl methylcarbamate] | 150000 |  | inhibition at 500 µM ([1]; at maximal concentration tested, 500 μM): 82.2 ± 2% |
| CNC(=O)Oc1ccc(C)cc1/C=C/c1cccs1 [Compound 4, (E)-4-methyl-2-(2-(thiophen-2-yl)vinyl)phenyl methylcarbamate] |  | 1100 nM and 913 nM | inhibition at 10 µM [1, 3]: 85.4 ± 2.29% |
| CNC(=O)Oc1ccccc1/C=C/c1ccc(C)s1 [Compound 5, (E)-2-(2-(5-methylthiophen-2-yl)vinyl)phenyl methylcarbamate] | 1100 | 913 nM | inhibition at 5 µM ([1]; at maximal concentration tested, 5 μM): 74.8 ± 2.36% |
| CNC(=O)Oc1ccc(F)cc1/C=C/c1ccc(C)s1 [Compound 6, (E)-4-fluoro-2-(2-(5-methylthiophen-2-yl)vinyl)phenyl methylcarbamate] |  | 14100 nM | inhibition at 50 µM [1]: 74 ± 3.2% |
| CNC(=O)Oc1ccc(Cl)cc1/C=C/c1ccc(C)s1 [Compound 7, (E)-4-chloro-2-(2-(5-methylthiophen-2-yl)vinyl)phenyl methylcarbamate] | 30400 |  | inhibition at 100 µM [1, 3]: 69.8 ± 1.15% |
| CNC(=O)Oc1ccc(Cl)cc1C=Cc1ncc(C)s1 [Compound 8, (E) and (Z)-4-chloro-2-(2-(5-methylthiazol-2-yl)vinyl)phenyl methylcarbamate] |  | 59100 nM | inhibition at 500 µM [1]: 87.21 ± 0.47% |
| CCN(C)C(=O)Oc1ccccc1/C=C/c1cccs1 [Compound 9, (E)-2-(2-(thiophen-2-yl)vinyl)phenyl ethyl(methyl)carbamate] | 583 |  | inhibition at 10 µM [1, 3]: 83.9 ± 1.77% |
| CCN(C)C(=O)Oc1ccc(F)cc1/C=C/c1cccs1 [Compound 10, (E)-4-fluoro-2-(2-(thiophen-2-yl)vinyl)phenyl ethyl(methyl)carbamate] | 3080 |  | inhibition at 27 µM ([1]; at maximal concentration tested, 27 μM): 83.5 ± 1.49% |
| CCN(C)C(=O)Oc1ccc(C)cc1/C=C/c1cccs1 [Compound 11, (E)-4-methyl-2-(2-(thiophen-2-yl)vinyl)phenyl ethyl(methyl)carbamate] | 1540 |  | inhibition at 10 µM [1, 3]: 82.8 ± 1.57% |
| CCN(C)C(=O)Oc1cccc(/C=C/c2cccs2)c1 [Compound 12, (E)-3-(2-(thiophen-2-yl)vinyl)phenyl ethyl(methyl)carbamate] | 1070 | 1500 nM | inhibition at 50 µM [1, 4]: 83.2 ± 0.84% |
| CCN(C)C(=O)Oc1cc(OC)ccc1/C=C/c1cccs1 [Compound 13, (E)-5-methoxy-2-(2-(thiophen-2-yl)vinyl)phenyl ethyl(methyl)carbamate] | 1880 |  | inhibition at 25 µM [1, 3]: 84.4 ± 2.29% |
| CCN(C)C(=O)Oc1ccccc1/C=C/c1ccc(C)s1 [Compound 14, (E)-2-(2-(5-methylthiophen-2-yl)vinyl)phenyl ethyl(methyl)carbamate] | 90000 | 85100 nM | inhibition at 250 µM ([1]; at maximal concentration tested, 250 μM): 70 ± 0.8% |
| O=C(Oc1ccccc1/C=C/c1cccs1)N1CCOCC1 [Compound 16, (E)-2-(2-(thiophen-2-yl)vinyl)phenyl morpholine-4-carboxylate] | 26.5 |  | IC50 ([2]; average, PBMCs from two donors): 31600 nM; inhibition at 1 µM ([1]; at maximal concentration tested, 1 μM): 84.25 ± 0.82% |
| O=C(Oc1ccc(F)cc1/C=C/c1cccs1)N1CCOCC1 [Compound 17, (E)-4-fluoro-2-(2-(thiophen-2-yl)vinyl)phenyl morpholine-4-carboxylate] | 645 |  | inhibition at 25 µM [1, 3]: 82.3 ± 2.44% |
| Cc1ccc(OC(=O)N2CCOCC2)c(/C=C/c2cccs2)c1 [Compound 18, (E)-4-methyl-2-(2-(thiophen-2-yl)vinyl)phenyl morpholine-4-carboxylate] | 430 |  | inhibition at 25 µM [1, 3]: 87.5 ± 1.31% |
| O=C(Oc1cccc(/C=C/c2cccs2)c1)N1CCOCC1 [Compound 19, (E)-3-(2-(thiophen-2-yl)vinyl)phenyl morpholine-4-carboxylate] | 2040 |  | inhibition at 50 µM [1, 4]: 79.7 ± 2.51% |
| C[C@@H]1C[C@H]2[C@@H]3CCC4=CC(=O)C=C[C@]4(C)[C@@]3(F)[C@@H](O)C[C@]2(C)[C@@]1(O)C(=O)CO [Dexamethasone, reference compound] |  |  | IC50 ([2]; PBMCs, reference compound): 3.5 nM |
